Data on one substance can be found in patent US9770481B2, “Inhibitors of NOX1” (UNIVERSITY OF PITTSBURGH—OF THE COMMONWEALTH SYSTEM OF …, priority 2011, dated 2017).

One assay has as its target T1, Nox5 (Homo sapiens, UniProt Q96PH1).
T1 construct: expressed in transfected cells; cell lysates
T1 sequence (Q96PH1 1-765): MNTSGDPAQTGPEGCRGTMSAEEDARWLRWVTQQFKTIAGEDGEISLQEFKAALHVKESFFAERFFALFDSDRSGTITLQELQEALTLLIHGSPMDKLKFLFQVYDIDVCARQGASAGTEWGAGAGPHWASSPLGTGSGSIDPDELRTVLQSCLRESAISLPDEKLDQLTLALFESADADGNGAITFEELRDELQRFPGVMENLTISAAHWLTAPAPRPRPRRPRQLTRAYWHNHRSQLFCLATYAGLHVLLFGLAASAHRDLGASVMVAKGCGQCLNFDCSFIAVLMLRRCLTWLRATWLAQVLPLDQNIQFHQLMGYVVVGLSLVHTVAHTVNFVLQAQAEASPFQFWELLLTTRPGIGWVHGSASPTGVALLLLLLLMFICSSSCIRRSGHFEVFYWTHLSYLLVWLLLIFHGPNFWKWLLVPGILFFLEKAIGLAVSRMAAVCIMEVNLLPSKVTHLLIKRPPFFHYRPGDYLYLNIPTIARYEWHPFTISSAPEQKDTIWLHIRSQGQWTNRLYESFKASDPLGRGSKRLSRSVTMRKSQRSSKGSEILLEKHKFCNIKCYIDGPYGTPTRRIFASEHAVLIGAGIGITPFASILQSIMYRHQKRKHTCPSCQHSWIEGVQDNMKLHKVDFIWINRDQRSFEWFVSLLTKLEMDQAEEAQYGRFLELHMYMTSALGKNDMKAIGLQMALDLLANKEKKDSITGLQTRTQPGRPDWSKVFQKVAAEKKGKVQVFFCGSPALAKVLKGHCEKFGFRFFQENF
Briefly: O2- production by lysates of HEK293 cells stably transfected with Nox5 oxidase, Ca2+-stimulated (cytochrome c). The assay is classed as cell-based. The conditions noted are these: 0.1 nM to 10,000 nM. The procedure: (§1) To test whether the inhibitory effect of NoxA1ds is specific to Nox1, the effect of NoxA1ds was tested on cells expressing Nox2, Nox4, and Nox5 as well as on purified xanthine oxidase enzyme. To test the effect on Nox2, production of O2^− was measured by the reduction of cytochrome c by cell lysates from COS cells transiently transfected with the Nox2 oxidase, stimulated with LiDS, and the treated with increasing concentrations of NoxA1ds (from 0.1 nM to 10,000 nM). Similarly, production of H2O2 was measured by Amplex red fluorescence by COS cells transiently transfected with the Nox4 oxidase and treated with increasing concentrations of NoxA1ds (from 100 nM to 10,000 nM). Production of O2^− was also measured by the reduction of cytochrome c by cell lysates from HEK293 cells stably transfected with the Nox5 oxidase stimulated with Ca^2+, and treated with increasing concentrations of NoxA1ds (from 0.1 nM to 10,000 nM). Finally, production of O2^− was measured by Electron Paramagnetic Resonance from pure xanthine oxidase enzyme preparations, stimulated with hypoxanthine and treated with increasing concentrations of NoxA1ds (from 0.1 nM to 10,000 nM).

Another assay deals with xanthine oxidase. Briefly: O2- production by pure xanthine oxidase stimulated with hypoxanthine (EPR). It counts as biochemical. The conditions noted are these: 0.1 nM to 10,000 nM. The procedure:
as §1

Assay [1] has as its target T2, interaction between Nox1 and NoxA1 (Homo sapiens, UniProt Q9Y5S8).
T2 construct: expressed in transfected cells; host or cells: COS22
T2 sequence (Q9Y5S8 1-564): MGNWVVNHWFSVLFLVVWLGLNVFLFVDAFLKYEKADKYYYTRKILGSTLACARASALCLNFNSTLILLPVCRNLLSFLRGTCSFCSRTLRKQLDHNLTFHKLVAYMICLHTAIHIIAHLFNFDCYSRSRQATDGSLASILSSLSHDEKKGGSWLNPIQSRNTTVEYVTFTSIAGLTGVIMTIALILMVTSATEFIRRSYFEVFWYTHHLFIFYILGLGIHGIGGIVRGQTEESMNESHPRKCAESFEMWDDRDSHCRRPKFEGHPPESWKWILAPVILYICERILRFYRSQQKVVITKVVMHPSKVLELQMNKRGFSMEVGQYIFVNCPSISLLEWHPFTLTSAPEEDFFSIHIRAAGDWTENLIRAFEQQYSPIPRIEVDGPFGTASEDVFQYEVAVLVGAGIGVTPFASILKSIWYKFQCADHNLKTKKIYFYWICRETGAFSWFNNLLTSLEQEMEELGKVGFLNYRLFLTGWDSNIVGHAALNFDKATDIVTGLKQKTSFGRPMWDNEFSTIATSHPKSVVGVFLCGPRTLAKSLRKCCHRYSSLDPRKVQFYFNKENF
T2 sequence (P13498 2-195 partner limits assumed): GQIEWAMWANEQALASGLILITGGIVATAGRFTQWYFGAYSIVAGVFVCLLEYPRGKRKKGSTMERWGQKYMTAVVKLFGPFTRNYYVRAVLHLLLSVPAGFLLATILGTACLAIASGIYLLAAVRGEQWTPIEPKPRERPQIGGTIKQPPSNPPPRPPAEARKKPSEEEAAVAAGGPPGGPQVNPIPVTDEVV
Briefly: FRET between Nox1-YFP and NoxA1-CFP in transfected COS22 cells. The conditions noted are these: 10 μM, one hour prior to imaging. The assay is classed as cell-based. The method, then:
FRET (fluorescence resonance energy transfer) studies were performed to study the effect of NoxA1ds on the interaction between Nox1 and NoxA1: In particular, FRET between Nox1-YFP and NoxA1-CFP transfected COS22 cells in the presence or absence of 10 μM NoxA1ds or SCRMB was evaluated. Relative fluorescence of CFP is green while YFP is red. Traces underneath the images indicate fluorescent intensities of CFP and YFP underneath the arrow overlaid on each cell.

Take “H-EPVDALGKAKV-NH2 [NoxA1ds, [NH3^+]-EPVDALGKAKV-[CONH2]]”: at Nox5, the “Inhibitory effect on Nox5 O2- production” value was “did not exhibit a significant inhibitory effect”. The “Inhibitory effect on xanthine oxidase O2- production” value with xanthine oxidase is listed as “did not exhibit a significant inhibitory effect”. The “CFP fluorescence after photobleaching of Nox1-YFP (FRET)” value in assay [1] is recorded as “did not result in a concomitant increase in CFP fluorescence”.
